Results reported in patent publication US10392404B2, “Compounds and compositions as kinase inhibitors” (NOVARTIS AG, priority 2014, dated 2019).

Legend:
C-RAF = target: T1, C-RAF (Homo sapiens, UniProt P04049, Y340E/Y341E); experiment: In vitro Raf activity determination (Alpha Screen, biotinylated kinase-dead MEK1 substrate), C-Raf; type: biochemical; details: c-Raf approximately 4 nM; ATP 1 μM; pre-incubation 60 minutes; reaction 1 hour at room temperature
T1 construct: His tag (implied by nickel chromatography) (cleaved yes); StrepII tag (cleaved yes); made in house; host or cells: Sf9 insect cells (baculovirus), CRAF and h14-3-3 zeta co-expressed; MEK1 substrate from E. coli
Text: CRAF cDNA was subcloned as full length protein, with Y340E and Y341E activating mutations, into a baculovirus expression vector for Sf9 insect cell expression. h14-3-3 zeta cDNA was subcloned into a baculovirus expression vector for SF9 insect cell expression. Sf9 cells co-expressing both proteins were lysed and subjected to immobilized nickel chromatography and eluted with Imidazole. A second column (StrepII binding column) was used and eluted with desthiobiotin. Protein Tags were removed using Prescission enzyme and the protein was further purified using a flowthrough step to remove tags.
C-Raf TR refers to a truncated C-Raf protein, a Δ1-324 deletion mutant. C-Raf FL refers to the full-length C-Raf protein.
(§1) Full length MEK1 with an inactivating K97R ATP binding site mutation is utilized as a RAF substrate. The MEK1 cDNA was subcloned with an N-terminal (his)6 tag into a vector for E. Coli expression. The MEK1 substrate was purified from E. Coli lysate by nickel affinity chromatography followed by anion exchange. The final MEK1 preparation was biotinylated (Pierce EZ-Link Sulfo-NHS-LC-Biotin) and concentrated.
(§2) Assay Materials: Assay buffer is 50 mM Tris, pH 7.5, 15 mM MgCl2, 0.01% Bovine Serum Albumin (BSA) and 1 mM dithiothreitol (DTT); Stop buffer is 60 mM ethylenediaminetetraacetic acid (EDTA) and 0.01% Tween® 20; b-Raf (V600E), active; biotinylated Mek, kinase dead; Alpha Screen detection kit (available from PerkinElmer™, #6760617R); Anti phospho-MEK1/2 (available from Cell Signaling Technology, Inc. #9121); 384 well low volume assay plates (White Greiner® plates).
(§3) Assay conditions: b-Raf (V600E) approximately 4 pM; c-Raf approximately 4 nM; biotinylated Mek, kinase dead approximately 10 nM; ATP 10 μM for BRAF (V600E) and 1 μM for CRAF; Pre-incubation time with compounds 60 minutes at room temperature; Reaction time 1 or 3 hours at room temperature.
(§4) Assay protocol: Raf and biotinylated Mek (kinase dead) were combined at 2× final concentrations in assay buffer (50 mM Tris, pH 7.5, 15 mM MgCl2, 0.01% BSA and 1 mM DTT) and dispensed […] per well in assay plates (Greiner white 384 well assay plates #781207) containing […] of 40× of a Raf kinase inhibitor test compound diluted in 100% DMSO. The plate was incubated for 60 minutes at room temperature. The Raf kinase activity reaction was started by the addition of […] per well of 2×ATP diluted in assay buffer. After 3 hours (b-Raf(V600E)) or 1 hour (c-Raf). The reactions were stopped and the phosphorylated product was measured using a rabbit anti-p-MEK (Cell Signaling, #9121) antibody and the Alpha Screen IgG (ProteinA) detection Kit (PerkinElmer #6760617R), by the addition of […] to the well of a mixture of the antibody (1:2000 dilution) and detection beads (1:2000 dilution of both beads) in Stop/bead buffer (25 mM EDTA, 50 mM Tris, pH 7.5, 0.01% Tween20). The additions were carried out under dark conditions to protect the detection beads from light. A lid was placed on top of the plate and incubated for 1 hour at room temperature, after which the luminescence was read on a PerkinElmer Envision instrument. The concentration of each compound for 50% inhibition (IC50) was calculated by non-linear regression using XL Fit data analysis software.

b-Raf (V600E) = target: T2, b-Raf (V600E) (Homo sapiens, UniProt P15056, V600E); experiment: In vitro Raf activity determination (Alpha Screen, biotinylated kinase-dead MEK1 substrate), B-Raf; type: biochemical; details: b-Raf (V600E) approximately 4 pM; ATP 10 μM; pre-incubation 60 minutes; reaction 3 hours at room temperature
T2 construct: made in house
Protocol: as §1, §2, §3, §4

T2 sequence (P15056 whole entry V600E): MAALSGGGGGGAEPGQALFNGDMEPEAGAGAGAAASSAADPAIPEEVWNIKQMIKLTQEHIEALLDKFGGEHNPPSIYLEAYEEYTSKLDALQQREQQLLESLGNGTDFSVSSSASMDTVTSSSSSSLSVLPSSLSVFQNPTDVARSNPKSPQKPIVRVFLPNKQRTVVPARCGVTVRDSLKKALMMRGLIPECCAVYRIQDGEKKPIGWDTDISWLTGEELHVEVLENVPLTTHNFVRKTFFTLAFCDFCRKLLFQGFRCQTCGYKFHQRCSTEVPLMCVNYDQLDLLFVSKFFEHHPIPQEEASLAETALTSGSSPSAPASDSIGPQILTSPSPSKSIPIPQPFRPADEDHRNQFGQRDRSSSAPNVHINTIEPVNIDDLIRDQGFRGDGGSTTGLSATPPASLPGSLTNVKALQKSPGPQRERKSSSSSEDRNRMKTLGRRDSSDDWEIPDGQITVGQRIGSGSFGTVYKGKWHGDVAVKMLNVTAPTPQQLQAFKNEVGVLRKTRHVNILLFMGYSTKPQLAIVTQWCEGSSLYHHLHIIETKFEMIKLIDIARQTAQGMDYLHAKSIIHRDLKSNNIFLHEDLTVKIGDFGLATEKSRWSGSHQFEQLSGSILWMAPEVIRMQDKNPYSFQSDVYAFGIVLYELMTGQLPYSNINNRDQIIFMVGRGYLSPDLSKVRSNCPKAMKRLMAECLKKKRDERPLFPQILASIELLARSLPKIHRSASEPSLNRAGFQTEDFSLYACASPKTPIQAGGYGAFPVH
T1 sequence (P04049 whole entry Y340E/Y341E): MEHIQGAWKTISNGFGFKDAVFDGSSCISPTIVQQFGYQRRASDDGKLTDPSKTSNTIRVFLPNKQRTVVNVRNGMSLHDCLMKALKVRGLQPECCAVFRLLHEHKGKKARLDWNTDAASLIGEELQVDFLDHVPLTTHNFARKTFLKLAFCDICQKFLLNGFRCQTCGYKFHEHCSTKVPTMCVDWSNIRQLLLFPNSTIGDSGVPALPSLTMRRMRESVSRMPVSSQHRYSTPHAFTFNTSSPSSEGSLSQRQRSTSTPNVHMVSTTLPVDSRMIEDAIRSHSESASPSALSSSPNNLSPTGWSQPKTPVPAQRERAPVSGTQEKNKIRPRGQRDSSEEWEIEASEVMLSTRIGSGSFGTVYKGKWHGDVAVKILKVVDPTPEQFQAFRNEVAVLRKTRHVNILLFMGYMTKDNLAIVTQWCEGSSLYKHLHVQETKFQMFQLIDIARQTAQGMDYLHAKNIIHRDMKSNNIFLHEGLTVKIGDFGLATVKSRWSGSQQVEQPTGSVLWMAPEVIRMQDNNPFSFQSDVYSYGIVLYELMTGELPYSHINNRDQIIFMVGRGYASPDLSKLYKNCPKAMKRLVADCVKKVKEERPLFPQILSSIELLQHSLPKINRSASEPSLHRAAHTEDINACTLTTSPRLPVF
T1 sequence (P63104 whole entry partner): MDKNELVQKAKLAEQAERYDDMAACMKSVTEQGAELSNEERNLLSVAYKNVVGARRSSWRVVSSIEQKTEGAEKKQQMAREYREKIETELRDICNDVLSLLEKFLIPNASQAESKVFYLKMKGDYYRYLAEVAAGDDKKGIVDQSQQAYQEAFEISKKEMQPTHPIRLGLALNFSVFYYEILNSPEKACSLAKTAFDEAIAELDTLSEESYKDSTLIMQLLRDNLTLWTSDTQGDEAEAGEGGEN

| Structure (SMILES) | IC50 (C-RAF) | IC50 (b-Raf (V600E)) |
| --- | --- | --- |
| Cc1ncc(NC(=O)c2ccnc(C(C)(C)C#N)c2)cc1-c1cnc(NC2CCOC2)c(C#N)c1 (stereo in doubt) [Example 78a, (S)-N-(5′-cyano-2-methyl-6′-((tetrahydrofuran-3-yl)amino)-[3,3′-bipyridin]-5-yl)-2-(2-cyanopropan-2-yl)isonicotinamide] | 3.16 nM | 12.3 nM |
| Cc1ncc(NC(=O)c2ccnc(C(C)(C)C#N)c2)cc1-c1cnc(NC2CCOC2)c(C#N)c1 (stereo in doubt) [Example 78b, (R)-N-(5′-cyano-2-methyl-6′-((tetrahydrofuran-3-yl)amino)-[3,3′-bipyridin]-5-yl)-2-(2-cyanopropan-2-yl)isonicotinamide] | 2.41 nM | 10.3 nM |
| Cc1ccc(NC(=O)c2ccnc(C(C)(C)C#N)c2)cc1-c1cnc(N)c(C#N)c1 [Example 2, N-(3-(6-amino-5-cyanopyridin-3-yl)-4-methylphenyl)-2-(2-cyanopropan-2-yl) isonicotinamide] | 0.661 nM | 3.07 nM |
| Cc1ccc(C(=O)Nc2cccc(C(F)(F)F)c2)cc1-c1cnc(N)c(C#N)c1 [Example 3, 3-(6-amino-5-cyanopyridin-3-yl)-4-methyl-N-(3-(trifluoromethyl)phenyl)benzamide] | 0.125 nM | 0.991 nM |
| Cc1ncc(NC(=O)c2cccc(C(F)(F)F)c2)cc1-c1cnc(N)c(C#N)c1 [Example 4, N-(6′-amino-5′-cyano-2-methyl-[3,3′-bipyridin]-5-yl)-3-(trifluoromethyl) benzamide] | 0.211 nM | 1.63 nM |
| CNc1ncc(-c2cc(NC(=O)c3cccc(C(F)(F)F)c3)ccc2C)cc1C#N [Example 5, N-(3-(5-cyano-6-(methylamino)pyridin-3-yl)-4-methylphenyl)-3-(trifluoromethyl) benzamide] | 0.18 nM | 1.33 nM |
| CNc1ncc(-c2cc(NC(=O)c3ccnc(C(C)(C)C#N)c3)ccc2C)cc1C#N [Example 6, N-(3-(5-cyano-6-(methylamino)pyridin-3-yl)-4-methylphenyl)-2-(2-cyanopropan-2-yl)isonicotinamide] | 0.379 nM | 2.18 nM |
| CNc1ncc(-c2cc(C(=O)Nc3cccc(C(F)(F)F)c3)ccc2C)cc1C#N [Example 7, 3-(5-cyano-6-(methylamino)pyridin-3-yl)-4-methyl-N-(3-(trifluoromethyl)phenyl) benzamide] | 0.566 nM | 4.44 nM |
| CNc1ncc(-c2cc(NC(=O)c3cccc(C(F)(F)F)c3)cnc2C)cc1C#N [Example 8, N-(5′-cyano-2-methyl-6′-(methylamino)-[3,3′-bipyridin]-5-yl)-3-(trifluoromethyl) benzamide] | 0.25 nM | 1.98 nM |
| Cc1ccc(NC(=O)c2ccnc(C(C)(C)C#N)c2)cc1-c1cnc(N)c(C#N)c1C [Example 9, N-(3-(6-amino-5-cyano-4-methylpyridin-3-yl)-4-methylphenyl)-2-(2-cyanopropan-2-yl)isonicotinamide] | 6.55 nM | 60.8 nM |
| Cc1ccc(C(=O)Nc2cccc(C(F)(F)F)c2)cc1-c1cnc(N)c(C#N)c1C [Example 11, 3-(6-amino-5-cyano-4-methylpyridin-3-yl)-4-methyl-N-(3-(trifluoromethyl)phenyl)benzamide] | 0.606 nM | 9.79 nM |
| Cc1ccc(NC(=O)c2ccnc(C(C)(C)C#N)c2)cc1-c1cc(C#N)cnc1N [Example 12, N-(3-(2-amino-5-cyanopyridin-3-yl)-4-methylphenyl)-2-(2-cyanopropan-2-yl)isonicotinamide] | 1.81 nM | 27.8 nM |
| Cc1ccc(NC(=O)c2cccc(C(F)(F)F)c2)cc1-c1cc(C#N)cnc1N [Example 13, N-(3-(2-amino-5-cyanopyridin-3-yl)-4-methylphenyl)-3-(trifluoromethyl) benzamide] | 0.284 nM | 5.61 nM |
| Cc1ccc(NC(=O)c2cccc(C(F)(F)F)c2)cc1-c1cc(C#N)c[nH]c1=O [Example 14, N-(3-(5-cyano-2-oxo-1,2-dihydropyridin-3-yl)-4-methylphenyl)-3-(trifluoromethyl) benzamide] | 0.614 nM | 11.2 nM |
| Cc1ccc(NC(=O)c2cccc(C(F)(F)F)c2)cc1-c1cnc(N(C)C)c(C#N)c1 [Example 15, N-(3-(5-cyano-6-(dimethylamino)pyridin-3-yl)-4-methylphenyl)-3-(trifluoromethyl) benzamide] | 0.0734 nM | 0.566 nM |
| Cc1ccc(NC(=O)c2ccnc(C(C)(C)C#N)c2)cc1-c1cnc(N(C)C)c(C#N)c1 [Example 16, N-(3-(5-cyano-6-(dimethylamino)pyridin-3-yl)-4-methylphenyl)-2-(2-cyanopropan-2-yl)isonicotinamide] | 0.216 nM | 1.53 nM |
| Cc1ccc(NC(=O)c2cccc(C(F)(F)F)c2)cc1-c1cnc(NC2CC2)c(C#N)c1 [Example 17, N-(3-(5-cyano-6-(cyclopropylamino)pyridin-3-yl)-4-methylphenyl)-3-(trifluoromethyl) benzamide] | 0.323 nM | 2.28 nM |
| Cc1ccc(NC(=O)c2cccc(C(F)(F)F)c2)cc1-c1cnc(NC(C)C)c(C#N)c1 [Example 18, N-(3-(5-cyano-6-(isopropylamino)pyridin-3-yl)-4-methylphenyl)-3-(trifluoromethyl) benzamide] | 0.386 nM | 3.44 nM |
| Cc1ccc(NC(=O)c2ccnc(C(C)(C)C#N)c2)cc1-c1cnc(NC2CC2)c(C#N)c1 [Example 19, N-(3-(5-cyano-6-(cyclopropylamino)pyridin-3-yl)-4-methylphenyl)-2-(2-cyanopropan-2-yl)isonicotinamide] | 0.397 nM | 2.15 nM |
| Cc1ccc(NC(=O)c2ccnc(C(C)(C)C#N)c2)cc1-c1cnc(NC(C)C)c(C#N)c1 [Example 20, N-(3-(5-cyano-6-(isopropylamino)pyridin-3-yl)-4-methylphenyl)-2-(2-cyanopropan-2-yl)isonicotinamide] | 0.467 nM | 1.67 nM |
| Cc1ccc(NC(=O)c2ccnc(C(F)(F)F)c2)cc1-c1cnc(NC2CC2)c(C#N)c1 [Example 21, N-(3-(5-cyano-6-(cyclopropylamino)pyridin-3-yl)-4-methylphenyl)-2-(trifluoromethyl) isonicotinamide] | 0.103 nM | 0.575 nM |
| Cc1ccc(NC(=O)c2ccnc(C(F)(F)F)c2)cc1-c1cnc(NC(C)C)c(C#N)c1 [Example 22, N-(3-(5-cyano-6-(isopropylamino)pyridin-3-yl)-4-methylphenyl)-2-(trifluoromethyl) isonicotinamide] | 0.314 nM | 1.25 nM |
| CCNc1ncc(-c2cc(NC(=O)c3cccc(C(F)(F)F)c3)ccc2C)cc1C#N [Example 23, N-(3-(5-cyano-6-(ethylamino)pyridin-3-yl)-4-methylphenyl)-3-(trifluoromethyl) benzamide] | 0.247 nM | 1.46 nM |
| CCNc1ncc(-c2cc(NC(=O)c3ccnc(C(F)(F)F)c3)ccc2C)cc1C#N [Example 24, N-(3-(5-cyano-6-(ethylamino)pyridin-3-yl)-4-methylphenyl)-2-(trifluoromethyl) isonicotinamide] | 0.123 nM | 0.805 nM |
| Cc1cc(C(=O)Nc2cnc(C)c(-c3cnc(N(C)C)c(C#N)c3)c2)n(C)n1 [Example 265, N-(5′-cyano-6′-(dimethylamino)-2-methyl-[3,3′-bipyridin]-5-yl)-1,3-dimethyl-1H-pyrazole-5-carboxamide] | 312 nM | – |
